For series [1], the system named is KHYG-1 NK cell-mediated lysis of K562 cells. As to the kind of experiment: Inhibition of KHYG-1 NK cell-mediated lysis of K562 cells (51Cr release). Format: cell-based. As to conditions: K562 target cells, Effector:Target 2:1, 4 hours 37° C. The protocol:
Inhibition of KHYG-1 NK Cell-Mediated lysis of K562 Cells
KHYG-1 cells were washed and resuspended in RPMI+0.1% BSA at 4×10^5 cells/ml and 50 μl of KHYG-1 cells were dispensed to each well of a 96-well V-bottom, plate. Test compounds were added to KHYG-1 cells at various concentrations up to 20 μM and incubated at RT for 20 minutes. 1×10^6 K562 target cells were labelled with 75 μCi ^51Cr in 200 μl RPMI for 90 mins at 37° C., cells were washed as described above and resuspended in 5 ml RPMI+0.1% BSA. 50 μl of ^51Cr labelled K562 leukemia target cells were added to each well of the KHYG-1 plate (Effector:Target 2:1) and incubated at 37° C. for 4 hours. ^51Cr release was assayed using a Skatron Harvesting Press and radioactivity estimated on a Wallac Wizard 1470 Automatic Gamma counter (Turku, Finland). The percentage of specific cytotoxicity was calculated by the formula: […]
and expressed as the mean of triplicate assays +/−standard error of the mean.

The subject of another series is KHYG-1 NK cells. As to the kind of experiment: Toxicity to KHYG-1 NK cells (trypan blue viability). Format: cell-based. The conditions noted are these: viable cells as percentage of total (% viability), 18 to 24 hours. The method, then:
Toxicity to KHYG-1 NK Cells
KHYG-1 cells were washed and resuspended in RPMI+0.1% BSA at 4×10^5 cells/ml and 50 μl of KHYG-1 cells were dispensed to each well of a 96-well V-bottom plate. Test compounds were added to KHYG-1 cells at a concentration of 20 μM and incubated at RT for 20 minutes. 100 μL of RPMI 0.1% BSA was added and the cells were incubated for 4 hours at 37° C. then washed ×3 in RPMI+0.1% BSA. Cells were then resuspended in 200 μl of complete medium and incubated for 18 to 24 hours at 37° C. Trypan blue was added to each well and viable (clear) cells counted as a percentage of total (clear+blue) cell number (% viability).

The next series addresses recombinant perforin (UniProt P10820). In kind it is cell-based. As to conditions: read-out: Jurkat IC50; recombinant perforin pre-incubated 30 min with compound; 51Cr-labelled Jurkat cells, 0.1% BSA, 37° C. 4 hours. The protocol:
Inhibition of Perforin-Mediated Lysis of Jurkat Cells
The ability of the compounds to inhibit the lysis of nucleated (Jurkat T lymphoma) cells in the presence of 0.1% BSA, as measured by release of ^51Cr was measured. Jurkat target cells were labelled by incubation in medium with 100 μCi ^51Cr for one hour. The cells were then washed three times to remove unincorporated isotope and re-suspended at 1×10^5 cells per mL in RPMI buffer supplemented with 0.1% BSA. […] The supernatant was collected and assessed for its radioactive content on a gamma counter (Wallac Wizard 1470 automatic gamma counter). Each data point was performed in triplicate and an IC50 was calculated from the range of concentrations described to above.

The values below come from US20130065897A1, “COMPOUNDS, PREPARATION AND USES THEREOF” (PETER MACCALLUM CANCER INSTITUTE, priority 2009, published 2013).

pIC50: −log10 of the molar value.

Sequence of recombinant perforin (P10820 whole entry): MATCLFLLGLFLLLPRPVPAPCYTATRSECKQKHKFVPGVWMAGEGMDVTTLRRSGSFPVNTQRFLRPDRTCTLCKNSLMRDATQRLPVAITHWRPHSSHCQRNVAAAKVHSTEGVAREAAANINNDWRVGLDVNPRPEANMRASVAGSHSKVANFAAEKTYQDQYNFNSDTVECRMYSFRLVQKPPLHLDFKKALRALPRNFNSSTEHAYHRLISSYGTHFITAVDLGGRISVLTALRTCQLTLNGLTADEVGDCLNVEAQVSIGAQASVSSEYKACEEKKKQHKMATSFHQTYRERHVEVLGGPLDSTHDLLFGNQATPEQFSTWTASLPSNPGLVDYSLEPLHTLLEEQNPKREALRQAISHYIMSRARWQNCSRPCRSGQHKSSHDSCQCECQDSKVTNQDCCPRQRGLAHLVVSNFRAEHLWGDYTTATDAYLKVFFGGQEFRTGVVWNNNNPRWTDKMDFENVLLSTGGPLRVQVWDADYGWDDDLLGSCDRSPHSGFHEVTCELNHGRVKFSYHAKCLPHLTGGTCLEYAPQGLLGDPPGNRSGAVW

Regarding `[H]/N=C1/NC(=O)/C(=C\c2ccc(-c3ccc4c(c3)COC4=O)s2)N1C` [Cmpd 4, (E,Z)-2-Imino-1-methyl-5-((5-(1-oxo-1,3-dihydroisobenzofuran-5-yl)thiophen-2-yl)methylene)imidazolidin-4-one], the melting point (as a rule, the temperature of the solid-liquid transition) is over 300 °C. In series [1], the inhibition (commonly the drop in the measured response relative to a control, in per cent) at 20 µM turned out to be 50%. The “percent viable KHYG-1 cells (trypan blue) at 20 μM” value (from here on “percent viable KHYG-1 cells”) in the series on KHYG-1 NK cells came out at 100%.

For the compound `O=C1NC(=S)N/C1=C/c1ccc(-c2ccc3c(c2)CN(CCN2CCOCC2)C3=O)s1` [Cmpd 67, (E,Z)-2-(2-Morpholinoethyl)-5-(5-((5-oxo-2-thioxoimidazolidin-4-ylidene)methyl)thiophen-2-yl)isoindolin-1-one], the melting point was 261 to 264 °C. Further, the inhibition at 20 µM in series [1] is 78%. In the series with KHYG-1 NK cells, the “percent viable KHYG-1 cells” value was found to be 73%.

As for `CN1CCN(CCCN2Cc3cc(-c4ccc(/C=C5/NC(=S)NC5=O)s4)ccc3C2=O)CC1` [Cmpd 76, (E,Z)-2-(3-(4-Methylpiperazin-1-yl)propyl)-5-(5-((5-oxo-2-thioxoimidazolidin-4-ylidene)methyl)thiophen-2-yl)isoindolin-1-one], the melting point is 197 to 201 °C. In series [1], this compound showed an inhibition at 20 µM of 58%. For the same compound, at recombinant perforin, the pIC50 – broadly, the negative decadic logarithm of the IC50, by convention in mol/L – was under 4.70.

In the case of `O=C1NC(=S)N/C1=C/c1ccc(-c2ccc3c(c2)COC3=O)[nH]1` [Cmpd 53, (E,Z)-5-((5-(1-Oxo-1,3-dihydroisobenzofuran-5-yl)-1H-pyrrol-2-yl)methylene)-2-thioxoimidazolidin-4-one], the melting point was over 300 °C. Further, at 20 µM the inhibition in series [1] was 30%. For the same compound, on recombinant perforin, the pIC50 is 5.61.

`O=C1NCC/C1=C\c1ccc(-c2ccc3c(c2)COC3=O)s1` [Cmpd 37, (E,Z)-3-((5-(1-Oxo-1,3-dihydroisobenzofuran-5-yl)thiophen-2-yl)methylene)pyrrolidin-2-one] registered a melting point of 224 to 227 °C. Moreover, testing at 20 µM in series [1] gave an inhibition of 20%. Also, the “percent viable KHYG-1 cells” value with KHYG-1 NK cells was found to be 97%.

`O=C1NC(=S)N/C1=C\c1ccc(-c2ccc3c(c2)COC3=O)cn1` [Cmpd 8, (E,Z)-5-((5-(1-oxo-1,3-dihydroisobenzofuran-5-yl)pyridin-2-yl)methylene)-2-thioxoimidazolidin-4-one] displayed a melting point of over 300 °C. This compound returned an inhibition at 20 µM in series [1] of 57%. In addition, in the series with KHYG-1 NK cells, the “percent viable KHYG-1 cells” value is given as 96%.

For the compound `O=C1NC(=S)N/C1=C\c1csc(-c2ccc3c(c2)COC3=O)n1` [Cmpd 57, (E,Z)-5-((2-(1-Oxo-1,3-dihydroisobenzofuran-5-yl)thiazol-4-yl)methylene)-2-thioxoimidazolidin-4-one], the melting point is over 295 °C. Also, the pIC50 on recombinant perforin was 6.47.

As for `O=C1NC(=S)N/C1=C\c1cccc(-c2ccc3c(c2)CNC3=O)c1` [Cmpd 49, (E,Z)-5-(3-((5-Oxo-2-thioxoimidazolidin-4-ylidene)methyl)phenyl)isoindolin-1-one], the melting point was over 300 °C. This compound also registered an inhibition at 20 µM in series [1] of 8%. For the same compound, the pIC50 on recombinant perforin is 5.46.

With `O=C1NC(=S)N/C1=C\c1cc(-c2ccc3c(c2)COC3=O)no1` [Cmpd 58, (E,Z)-5-((3-(1-Oxo-1,3-dihydroisobenzofuran-5-yl)isoxazol-5-yl)methylene)-2-thioxoimidazolidin-4-one], the melting point was over 300 °C. Besides, the inhibition at 20 µM in series [1] came out at 39%. In addition, in the series on KHYG-1 NK cells, the “percent viable KHYG-1 cells” value was 82%.

Take `O=C1NC(=O)/C(=C\c2ccc(-c3ccc4c(c3)COC4=O)s2)N1` [Cmpd 3, (E,Z)-5-((5-(1-Oxo-1,3-dihydroisobenzofuran-5-yl)thiophen-2-yl)methylene)imidazolidine-2,4-dione]: the melting point was over 300 °C. The compound also yielded an inhibition at 20 µM in series [1] of 70%. Besides, the “percent viable KHYG-1 cells” value with KHYG-1 NK cells is reported as 82%.

The compound `O=C1NC(=S)N/C1=C\c1csc2ccc(-c3ccc4c(c3)COC4=O)cc12` [Cmpd 9] displayed a melting point of over 300 °C. Moreover, the inhibition at 20 µM in series [1] was 80%. In the series on KHYG-1 NK cells, the “percent viable KHYG-1 cells” value is 0%.

Compound `O=C1NC(=S)N/C1=C/c1ccc(-c2cccnc2)s1` [Cmpd 26, (E,Z)-5-((5-(Pyridin-3-yl)thiophen-2-yl)methylene)-2-thioxoimidazolidin-4-one] gave a melting point of over 295 °C. Also, the pIC50 at recombinant perforin is 4.89.

On to `O=C1NC(=S)N/C1=C\c1cc(-c2ccc3c(c2)COC3=O)ns1` [Cmpd 60, (E,Z)-5-((3-(1-Oxo-1,3-dihydroisobenzofuran-5-yl)isothiazol-5-yl)methylene)-2-thioxoimidazolidin-4-one], for which the melting point is over 300 °C. Moreover, at 20 µM the inhibition in series [1] was 45%. At recombinant perforin, the pIC50 was 5.84.

Take `O=C1NC(=S)N/C1=C/c1cc(-c2ccc3c(c2)CNC3=O)cs1` [Cmpd 50, (E,Z)-5-(5-((5-Oxo-2-thioxoimidazolidin-4-ylidene)methyl)thiophen-3-yl)isoindolin-1-one]: the melting point is over 300 °C. In addition, testing at 20 µM in series [1] gave an inhibition of 42%. Moreover, the pIC50 at recombinant perforin is 5.52.

`O=C1NC(=S)N/C1=C/c1ccc(-c2ccc3c(c2)COC3=O)s1` [Cmpd 2, (E,Z)-5-((5-(1-Oxo-1,3-dihydroisobenzofuran-5-yl)thiophen-2-yl)methylene)-2-thioxoimidazolidin-4-one] yielded an inhibition at 20 µM in series [1] of 52%. Further, the “percent viable KHYG-1 cells” value with KHYG-1 NK cells is 83%. Also, the pIC50 on recombinant perforin is 6.12.

`CCOC(=O)N1Cc2cc(-c3ccc(/C=C4/NC(=S)NC4=O)s3)ccc2C1=O` [Cmpd 65, (E,Z)-Ethyl 1-oxo-5-(5-((5-oxo-2-thioxoimidazolidin-4-ylidene)methyl)thiophen-2-yl)isoindoline-2-carboxylate] gave an inhibition at 20 µM in series [1] of 72%. Further, the “percent viable KHYG-1 cells” value in the series on KHYG-1 NK cells is 96%. In addition, at recombinant perforin, the pIC50 is 6.00.

`O=C1NC(=S)N/C1=C\c1nc(-c2ccc3c(c2)COC3=O)cs1` [Cmpd 56, (E,Z)-5-((4-(1-Oxo-1,3-dihydroisobenzofuran-5-yl)thiazol-2-yl)methylene)-2-thioxoimidazolidin-4-one] showed a melting point of over 295 °C. Moreover, on recombinant perforin, the pIC50 is 5.85.

In turn, `O=C1NC(=S)N/C1=C/c1ccc(-c2ccc(C(=O)NCCCN3CCOCC3)cc2)s1` [Cmpd 43, (E,Z)-N-(3-Morpholinopropyl)-4-(5-((5-oxo-2-thioxoimidazolidin-4-ylidene)methyl)thiophen-2-yl)benzamide] showed an inhibition at 20 µM in series [1] of 81%. Moreover, in the series on KHYG-1 NK cells, the “percent viable KHYG-1 cells” value stood at 89%. Further, the pIC50 on recombinant perforin was 5.09.

`O=C1NC(=S)N/C1=C/c1ccc(-c2ccc3c(c2)C(=O)NC3)s1` [Cmpd 72, (E,Z)-6-(5-((5-Oxo-2-thioxoimidazolidin-4-ylidene)methyl)thiophen-2-yl)isoindolin-1-one]: at 20 µM the inhibition in series [1] was 58%. In addition, the “percent viable KHYG-1 cells” value in the series with KHYG-1 NK cells was found to be 81%. At recombinant perforin, the pIC50 was 5.86.

Regarding `O=C1NC(=S)N/C1=C/c1ccc(-c2ccc3c(c2)CN(CCCN2CCCC2)C3=O)s1` [Cmpd 77, (E,Z)-5-(5((5-Oxo-2-thioxoimidazolidin-4-ylidene)methyl)thiophen-2-yl)-2-(3-(pyrrolidin-1-yl)propyl)isoindolin-1-one], the inhibition at 20 µM in series [1] turned out to be 81%. Moreover, in the series on KHYG-1 NK cells, the “percent viable KHYG-1 cells” value worked out at 80%. For the same compound, the pIC50 on recombinant perforin was under 4.70.

As to `CC(O)CNC(=O)c1ccc(-c2ccc(/C=C3/NC(=S)NC3=O)s2)cc1` (stereo not drawn) [Cmpd 41, (E,Z)-N-(2-Hydroxypropyl)-4-(5-((5-oxo-2-thioxoimidazolidin-4-ylidene)methyl)thiophen-2-yl)benzamide], in series [1], testing at 20 µM gave an inhibition of 60%. In addition, in the series with KHYG-1 NK cells, the “percent viable KHYG-1 cells” value stood at 91%. The pIC50 on recombinant perforin is 5.19.

On to `CC(=O)OCc1ccc(-c2ccc(/C=C3/NC(=S)NC3=O)s2)cc1` [Cmpd 18, (E,Z)-4-(5-((5-Oxo-2-thioxoimidazolidin-4-ylidene)methyl)thiophen-2-yl)benzyl acetate], for which, in series [1], the inhibition at 20 µM stood at 98%. Besides, the “percent viable KHYG-1 cells” value in the series on KHYG-1 NK cells was determined as 100%. Moreover, the pIC50 on recombinant perforin is 5.52.
